Patent publication US9889146B2, “Benzoxaborole compounds and uses thereof” (priority 2012, dated 2018)

Tests used:
Type in all cases: cell-based
[1] = tested on: E. coli ATCC 25922, K. pneumoniae ATCC 13883 and P. aeruginosa ATCC 27853; test: MIC, three strains and their mutants summarised; details: MIC in E. coli, P. aeruginosa and K. pneumoniae mutants versus wild-type
Method: (§1) Spontaneous Resistance Frequency was determined in vitro for GSK2251052 and the resistance mutants in E. coli ATCC 25922, K. pneumoniae ATCC 13883, and P. aeruginosa ATCC 27853 strains were characterized. GSK2251052 was prepared as described in U.S. Pat. No. 7,816,344 (the entire contents of which are hereby incorporated by reference herein). LB broth, Mueller Hinton II broth (adjusted), and Difco noble agar were obtained from Becton Dickinson (Cockeysville, Md., USA). M9 minimal broth containing 1×M9 salt, 0.5 μg/ML thiamine, 1 mM MgSO4, 0.1 mM CaCl2, 2% glucose, was obtained from Teknova (Hollister, Calif., USA). Antibacterial agents ciprofloxacin, ceftazidime, chloramphenicol, gentamycin, kanamycin, polymixin B, tobramycin and trimethoprim, and amino acids were obtained from Sigma Chemicals (St. Louis, Mo., USA). Strains were obtained from ATCC (Manassas, Va., USA).
(§2) Susceptibility tests were performed following the recommendations for aerobic bacteria (M7-A7) from the Clinical and Laboratories Standards Institute (CLSI).
(§3) Laboratory generated mutants resistant to GSK2251052 contain mutations in the editing domain of LeuRS. Six to ten GSK2251052 resistant colonies of E. coli ATCC 25922, K. pneumoniae ATCC 13883 and P. aeruginosa ATCC 27853 were selected for further analysis and their MICs to GSK2251052 were determined (Table 4-7).
GSK2251052 resistant mutants were not cross-resistant to commercial antibiotics.

Proteus mirabilis (WT) = test: microbe, parasite or virus in culture; details: Proteus mirabilis (WT); for MIC90: 235 isolates
[2] = tested on: Morganella morganii (AmpC); test: microbe, parasite or virus in culture; details: Morganella morganii (AmpC); for MIC90: 18 isolates
Proteus vulgaris (WT) = test: microbe, parasite or virus in culture; details: Proteus vulgaris (WT); for MIC90: 41 isolates
Providencia spp.(all) = test: microbe, parasite or virus in culture; details: Providencia spp.(all); for MIC90: 68 isolates
E. coli (ESBL) = test: microbe, parasite or virus in culture; details: E. coli (ESBL); for MIC90: 27 isolates
[3] = tested on: Citrobacter freundii (AmpC); test: microbe, parasite or virus in culture; details: Citrobacter freundii (AmpC); for MIC90: 60 isolates
Klebsiella spp. (WT) = test: microbe, parasite or virus in culture; details: Klebsiella spp. (WT); for MIC90: 159 isolates
S. marcescens (AmpC) = test: microbe, parasite or virus in culture; details: S. marcescens (AmpC); for MIC90: 26 isolates
Klebsiella spp. (KPC) = test: microbe, parasite or virus in culture; details: Klebsiella spp. (KPC); for MIC90: 26 isolates
[4] = tested on: Enterobacter cloacae (AmpC); test: microbe, parasite or virus in culture; details: Enterobacter cloacae (AmpC); for MIC90: 50 isolates
[5] = tested on: Enterobacter aerogenes (WT); test: microbe, parasite or virus in culture; details: Enterobacter aerogenes (WT); for MIC90: 199 isolates
E. coli (WT) = test: microbe, parasite or virus in culture; details: E. coli (WT); for MIC90: 214 isolates
Enterobacteriaceae = test: organism not typed; details: Enterobacteriaceae; for MIC90: 2029 isolates
[6] = tested on: Enterobacter aerogenes (AmpC); test: microbe, parasite or virus in culture; details: Enterobacter aerogenes (AmpC); for MIC90: 51 isolates
Klebsiella spp. (ESBL) = test: microbe, parasite or virus in culture; details: Klebsiella spp. (ESBL); for MIC90: 71 isolates
[7] = tested on: E. coli ATCC 25922 wild type and mutants; test: MIC, wild type and GSK2251052 resistant mutants
Method: as §1, §2, §3

[8] = tested on: P. aeruginosa ATCC 27853 wild type and mutants; test: MIC, wild type and GSK2251052 resistant mutants
Method: as §1, §2, §3

[9] = tested on: K. pneumoniae ATCC 13883 wild type and mutants; test: MIC, wild type and GSK2251052 resistant mutants
Method: as §1, §2, §3

[10] = tested on: Enterobacter cloacae (WT); test: microbe, parasite or virus in culture; details: for MIC90: 202 isolates

Gentamicin
cross-resistance of GSK2251052 resistant mutants [1]: did not have any significant difference in MIC values than wild-type
MIC90 (Proteus mirabilis (WT)): 4 µg/mL
MIC90 [2]: > 16 µg/mL
MIC90 (Proteus vulgaris (WT)): 2 µg/mL
MIC90 (Providencia spp.(all)): > 16 µg/mL
MIC90 (E. coli (ESBL)): > 16 µg/mL
MIC90 [3]: > 16 µg/mL
MIC90 (Klebsiella spp. (WT)): 1 µg/mL
MIC90 (S. marcescens (AmpC)): > 16 µg/mL
MIC90 (Klebsiella spp. (KPC)): 16 µg/mL
MIC90 [4]: > 16 µg/mL
MIC90 [5]: 1 µg/mL
MIC90 (E. coli (WT)): > 16 µg/mL
MIC90 (Enterobacteriaceae): 16 µg/mL
MIC90 [6]: 4 µg/mL
MIC90 (Klebsiella spp. (ESBL)): > 16 µg/mL
MICs ([7]; E wt): 2 µg/mL
MICs ([7]; mutant E 101): 1 µg/mL
MICs ([7]; mutant E 102): 1 µg/mL
MICs ([7]; mutant E 107): 1 µg/mL
MICs ([8]; P wt.): 8 µg/mL
MICs ([8]; mutant P 101): 4 µg/mL
MICs ([8]; mutant P106): 4 µg/mL
MICs ([8]; mutant P108): 4 µg/mL
MICs ([9]; K wt.): 1 µg/mL
MICs ([9]; mutant K 104): 1 µg/mL
MICs ([9]; mutant K 105): 1 µg/mL
MICs ([9]; mutant K 107): 1 µg/mL
MICs ([9]; mutant K 108): 0.5 µg/mL
MICs ([9]; mutant K 110): 1 µg/mL
MIC90 [10]: 1 µg/mL

Polymixin B
cross-resistance of GSK2251052 resistant mutants [1]: did not have any significant difference in MIC values than wild-type
MIC90 (Proteus mirabilis (WT)): > 8 µg/mL
susceptibility category of MIC90 (Proteus mirabilis (WT); polymixinB criteria): *** (resistant ≧8 μg/mL)
MIC90 [2]: > 8 µg/mL
susceptibility category of MIC90 ([2]; polymixinB criteria): *** (resistant ≧8 μg/mL)
MIC90 (Proteus vulgaris (WT)): > 8 µg/mL
susceptibility category of MIC90 (Proteus vulgaris (WT); polymixinB criteria): *** (resistant ≧8 μg/mL)
MIC90 (Providencia spp.(all)): 8 µg/mL
susceptibility category of MIC90 (Providencia spp.(all); polymixinB criteria): *** (resistant ≧8 μg/mL)
MIC90 (E. coli (ESBL)): 2 µg/mL
susceptibility category of MIC90 (E. coli (ESBL); polymixinB criteria): * (susceptible ≦2 μg/mL)
MIC90 [3]: 1 µg/mL
susceptibility category of MIC90 ([3]; polymixinB criteria): * (susceptible ≦2 μg/mL)
MIC90 (Klebsiella spp. (WT)): 1 µg/mL
susceptibility category of MIC90 (Klebsiella spp. (WT); polymixinB criteria): * (susceptible ≦2 μg/mL)
MIC90 (S. marcescens (AmpC)): > 8 µg/mL
susceptibility category of MIC90 (S. marcescens (AmpC); polymixinB criteria): *** (resistant ≧8 μg/mL)
MIC90 (Klebsiella spp. (KPC)): > 8 µg/mL
susceptibility category of MIC90 (Klebsiella spp. (KPC); polymixinB criteria): *** (resistant ≧8 μg/mL)
MIC90 [4]: 4 µg/mL
susceptibility category of MIC90 ([4]; polymixinB criteria): ** (intermediate 4 μg/mL)
MIC90 [5]: 4 µg/mL
susceptibility category of MIC90 ([5]; polymixinB criteria): ** (intermediate 4 μg/mL)
MIC90 (E. coli (WT)): 1 µg/mL
susceptibility category of MIC90 (E. coli (WT); polymixinB criteria): * (susceptible ≦2 μg/mL)
MIC90 (Enterobacteriaceae): > 8 µg/mL
susceptibility category of MIC90 (Enterobacteriaceae; polymixinB criteria): *** (resistant ≧8 μg/mL)
MIC90 [6]: 2 µg/mL
susceptibility category of MIC90 ([6]; polymixinB criteria): * (susceptible ≦2 μg/mL)
MIC90 (Klebsiella spp. (ESBL)): 2 µg/mL
susceptibility category of MIC90 (Klebsiella spp. (ESBL); polymixinB criteria): * (susceptible ≦2 μg/mL)
MICs ([7]; E wt): 4 µg/mL
MICs ([7]; mutant E 101): 4 µg/mL
MICs ([7]; mutant E 102): 4 µg/mL
MICs ([7]; mutant E 107): 4 µg/mL
MICs ([8]; P wt.): 4 µg/mL
MICs ([8]; mutant P 101): 4 µg/mL
MICs ([8]; mutant P106): 2 µg/mL
MICs ([8]; mutant P108): 4 µg/mL
MICs ([9]; K wt.): 4 µg/mL
MICs ([9]; mutant K 104): 8 µg/mL
MICs ([9]; mutant K 105): 4 µg/mL
MICs ([9]; mutant K 107): 2 µg/mL
MICs ([9]; mutant K 108): 4 µg/mL
MICs ([9]; mutant K 110): 4 µg/mL
MIC90 [10]: > 8 µg/mL
susceptibility category of MIC90 ([10]; polymixinB criteria): *** (resistant ≧8 μg/mL)
